Test results from US20240245677A1, “SELECTED COMPOUNDS FOR TARGETED DEGRADATION OF BRD9” (C4 THERAPEUTICS, INC., priority 2021, published 2024).

Assays:
[1] = HepG2 in vitro viability assay (CellTiter-Glo, 72 hours); assay type: cell-based, human; details: human, HepG2 cells, 72-hour treatment
Experimental: (§1) This assay assessed the general cytotoxicity of Compound 1 using the human hepatocarcinoma cell line HepG2. HepG2 cells were treated with Compound 1 for 72 hours and cellular viability was measured following the addition of CellTiter-Glo® 2.0 reagent (Promega) according to manufacturer's instructions. Agents were solubilized in DMSO and tested in the HepG2 cell line at concentrations ranging from 0.3 nM to 10 μM.
(§2) HepG2 cells were obtained from ATCC (Catalog No. HB-8065, Manassas, VA, USA) and maintained in MEM medium (Catalog No. 11095080, ThermoFisher Scientific, Waltham, MA, USA) supplemented with 10% heat inactivated fetal bovine serum (FBS) (Catalog No. 16000-044, Gibco, Grand Island, NY, USA) at 37° C. in an atmosphere of 5% CO2 in air. The cells were routinely sub-cultured to maintain cell density between 3×10^5-1.5×10^6 cells/mL, not to exceed 20 passages. Cells were washed with PBS, trypsinized for 5 min at 37° C., and resuspended in growth media. An aliquot was diluted 2× with Trypan Blue solution 0.4% (Catalog No. 15250061, ThermoFisher Scientific, Waltham, MA, USA) and cell count was determined. Cell concentration was adjusted with growth media to 1.0×10^4 cells/mL.
(§3) Compound 1 was prepared by dissolving neat compound in DMSO (Catalog No. D8418, Sigma-Aldrich, Inc., St. Louis, MO, USA) to generate 10 mM stock solution and stored at −20° C. 10 mM DMSO stock solution of Compound 1 was serially diluted (half log) in DMSO to generate 10-point dose series ([…]) in acoustic ready 384-well low dead volume microplates (Catalog No. LP-0200, Beckman Coulter Life Sciences, Indianapolis, IN, USA). Using an Echo 550 Acoustic Liquid Handler Handler (Beckman Coulter Life Sciences, Indianapolis, IN, USA), 50 nL of serially diluted compound solutions were dispensed directly in quadruplicate to each 384-well black TC-treated microplate (Catalog No. 3571, Corning, Glendale, CA, USA). 50 nL DMSO was transferred to all control wells.
(§4) 50 μL HepG2 cells suspended in growth media at 1.0×10^4 cells/mL (500 cells/well) were dispensed using a Multidrop Combi Reagent Dispenser (Catalog No. 5840300, ThermoFisher Scientific, Waltham, MA, USA) to each well of 384-well black TC-treated microplates containing quadruplicate concentration range of test compound and DMSO controls. Plates were incubated at 37° C., 5% CO2 for 72 hours. Final concentration of DMSO was 0.1% for all samples.
(§5) Additional cell plates (TO plates) were prepared by dispensing cells into a blank 384-well black TC-treated microplate to represent cytostatic controls and processed for viability detection immediately after cell dispensing.
(§6) HepG2 cell viability was determined based on quantification of ATP using CellTiter-Glo® 2.0 luminescent assay kit (Catalog No. G9243, Promega, Madison, WI, USA), which signals the presence of metabolically active cells. On Day 0 (Time 0) and Day 3 (72 hours) 25 μL CellTiter-Glo® reagent was added to each well of cell plates except the wells in column 24 and the luminescence was measured after 4 hours incubation at room temperature using an EnVision® Multilabel Reader (Catalog No. 2104-0010, Perkin Elmer Inc., Dumfries, VA, USA). Column 24 (cells without CellTiter-Glo® addition) was used as plate background or positive control (P).
(§7) Cytostatic control value (CT0) was computed from TO plate read using untreated cell signals (UT=0) and positive control signals (PT=0) as below.
(§8) Percent response of compound-treated samples at a time point T were calculated by normalizing the signal with P and DMSO treated negative (N) controls on the same microtiter plate and the CT0 control:
(§9) The Response % is thus 100% if the CellTiter-Glo® signal equals that of the DMSO treated controls (i.e., normal cell growth), 0% if it equals that of untreated cell at TO (i.e., cytostasis), and −100% if it equals the no CellTiter-Glo® reagent controls (i.e., complete cytotoxicity). […]

[2] = system: HepG2 cells; test: as above; assay type: cell-based, human; details: 72 hours
Experimental: as §1, §2, §3, §4, §5, §6, §7, §8, §9

[3] = Crystallization by heat-cool DSC; assay type: physicochemical; details: Cycle 2: 30 to 180° C. at 10° C./min; 180 to −20° C. at 2° C./min; re-heat to 250° C. at 10° C./min
Experimental: Polymorphic behavior of Compound 1 free form was investigated by two different heat-cool DSC cycles using free form Pattern E. A Tzero pan and a Tzero hermetic lid with a pin hole were used for this experiment. Cycle 1: 30° C. to 180° C. at 10° C./min; 180° C. to −20° C. at 20° C./min; reheat to 250° C. at 10° C./min. Cycle 2: 30° C. to 180° C. at 10° C./min; 180° C. to −20° C. at 2° C./min; reheat to 250° C. at 10° C./min.

COc1cc(-c2cn(C)c(=O)c(C)c2C)cc(OC)c1CN1CC[C@H](N2CCN(c3ccc(N[C@H]4CCC(=O)NC4=O)cc3F)CC2)C(F)(F)C1 [Compound 1, (S)-3-((4-(4-((S)-1-(2,6-dimethoxy-4-(1,4,5-trimethyl-6-oxo-1,6-dihydropyridin-3-yl)benzyl)-3,3-difluoropiperidin-4-yl)piperazin-1-yl)-3-fluorophenyl)amino)-piperidine-2,6-dione]
viability at 72 h, 0.00032 µM ([1]; 0.32 nM): 111%
viability at 72 h, 0.00101 µM ([1]; 1.01 nM): 102%
viability at 72 h, 0.00317 µM ([1]; 3.17 nM): 97.7%
viability at 72 h, 0.01 µM ([1]; 10.0 nM): 91.6%
viability at 72 h, 0.0317 µM ([1]; 31.7 nM): 97.4%
viability at 72 h, 0.1 µM ([1]; 100 nM): 92.5%
viability at 72 h, 0.317 µM ([1]; 317 nM): 102%
viability at 72 h, 1 µM ([1]; 1000 nM): 79%
viability at 72 h, 3.161 µM ([1]; 3161 nM): 84.6%
viability at 72 h, 9.99 µM ([1]; 9990 nM): 66.6%
inhibition at 10 µM ([2]; Homo sapiens, HepG2, read-out: growth inhibition of HepG2 cells relative to 0.1% DMSO controls, 10 μM): 33.4 ± 9.9%
effect on viability / growth of HepG2 cells ([2]; concentrations up to 3.3 μM): No significant effect
Thermal events: Glass transition [3]: Glass transition: 135.7° C.; Delta Cp:
